According to article PMC8155056, “Cooperative inhibition of SNARE-mediated vesicle fusion by α-synuclein monomers and oligomers” (Scientific Reports, 2021):
Entries after “also recorded” stand apart in the source; their conditions may differ.

Legend:
Syb2-carrying v-vesicles = assay: Cryo-EM of v-vesicle clustering
Procedure: Then, we tested the effect on vesicle clustering. We have proposed that α-Syn oligomers inhibit vesicle fusion by clustering synaptic vesicle mimics in vitro, thereby limiting the number of vesicles available for docking. A few micromolar α-Syn monomer is also known to induce vesicle clustering[27],[29],[30],[38]. Thus, it is possible that the α-Syn monomer by itself cannot induce vesicle clustering at the low concentration (less than 1 μM) that we applied in this work but assists α-Syn oligomers in clustering vesicles. We obtained images of v-vesicles treated with α-Syn oligomers in the presence and absence of monomers using cryo-electron microscopy (cryo-EM) (Fig. 2). The molar ratio of lipid: α-Syn oligomers: α-Syn monomers was 200:1:20. When more than ten vesicles were attached together, we assigned them as a vesicle clustering. In the absence of α-Syn, v-vesicles appeared without clustering (Fig. 2A). […] Cryo-EM could not resolve α-Syn oligomers because of its resolution limit. Since α-Syn oligomers are known to inhibit vesicle fusion through binding to the N-terminal domain of Syb2[15], we tested if their specific interactions with Syb2 are responsible for clustering the vesicles. We reconstituted v-vesicles with Syb2 lacking the N-terminal region (nt-Syb2, amino acids 29–116) and incubated them with α-Syn oligomers. […] While 22.7 ± 1.2 vesicles consisted of a cluster with α-Syn oligomers, 123.5 ± 11.5 vesicles clustered after the addition of α-Syn monomers together with oligomers. […] Although it is difficult to quantify the fraction of the flattened region, this structure was not observed in images of vesicles treated with α-Syn oligomers only (Fig. 2C, enlarged image). The addition of α-Syn monomer with α-Syn oligomers seemed to induce tighter adhesion between the vesicles.
v-Vesicles were incubated with α-Syn (molar ratio of lipid:α-Syn oligomer: monomer = 200:1:20). A 200-mesh carbon grid (Electron Microscopy Sciences) was glow-discharged using the PELCO easiGlow plasma cleaning system (Ted Pella, Inc.). […]

[1] = tested on: neuronal SNARE-mediated vesicle fusion (t-SNAREs syntaxin HT/SNAP25 and v-SNARE Syb2); assay: In vitro lipid-mixing (FRET) assay of SNARE-mediated vesicle fusion, v-vesicles with PS; type: biochemical
Excerpt: To address this question, we performed an in vitro lipid-mixing assay using fluorescently labeled proteoliposomes[31],[32]. In this assay, t-SNAREs [complexes of syntaxin Habc-trunctated (HT) (amino acids 168–288 of syntaxin 1A, lacking the Habc domain) and synaptosomal-associated protein-25 (SNAP25)] and v-SNARE Syb2 were incorporated into two different liposomes (t- and v-vesicles, respectively)[15],[31]. When t-vesicles doped with donor dyes (T) and v-vesicles doped with acceptor dyes (V) were fused together through SNARE complex formation[31],[33],[34], the lipids from the two types of vesicles mixed (Fig. 1B). This lipid mixing was monitored by the fluorescence resonance energy transfer (FRET) signal between 1,1′-dioctadecyl-3,3,3′,3′-tetramethylindocarbocyanine perchlorate (DiI) and 1,1′-dioctadecyl3,3,3′,3′-tetramethylindodicarbocyanine perchlorate (DiD) dyes (Supplementary Fig. S1B). α-Syn oligomers were prepared by incubating the α-Syn monomer (15 μM) with dopamine (100 μM) at 37 °C for 72 h (Supplementary Fig. S2A) and purified using size exclusion chromatography (Supplementary Fig. S2B and C)[15],[35]–[37]. We have estimated that the oligomers contain approximately 17 α-Syn monomeric subunits in our previous work[15]. Without the addition of α-Syn oligomers, the T-V mixture presented a significant mixing of lipids (Fig. 1C, the gray line).
We prepared three 30-residue peptides (CFα1, CFα2, and CFα3) that were mainly derived from the C-terminal domain of α-Syn (Anygen, South Korea) (Fig. 5A; Table 1) because the C-terminal domain of α-Syn (a.a. 96–140) is known to bind to the N-terminal domain of Syb2[26]. We confirmed the binding between the peptide and Syb2 using fluorescence anisotropy assay (Supplementary Fig. S8). […]
(§1) t-Vesicles labeled with DiI and v-vesicles labeled with DiD were mixed together to reach a 20 μM lipid concentration. […] We used 532-nm light for excitation and detected the FRET signal (at 690 nm) every 10 s using a temperature-controlled fluorescence spectrophotometer (Cary Eclipse, Agilent) at 37 °C.

[2] = tested on: SNARE-mediated vesicle docking; details: nonaggregated α-Syn monomer, 10 μM; ref [42]; cited from earlier work
Excerpt: For the molecular mechanism of the inhibition, we proposed that α-Syn oligomers interfere with vesicle docking by clustering vesicles. […] Nonaggregated α-Syn or its monomer uses its interaction with Syb2 to help SNARE complex assembly[26] and induces the clustering of vesicles or Syb2, which promotes SNARE complex formation[25],[30]. […] All the functions of the α-Syn monomer are beneficial for neurotransmitter release.

[3] = tested on: α-Syn oligomers and monomers; assay: Western blot of α-Syn monomer incubated with preformed oligomers; details: α-Syn monomer (500 nM) with preformed oligomers (10 nM), no dopamine, 37 °C, 12 h / up to 10 hours (Fig. S4)
Procedure: We first tested whether the incubation of the α-Syn monomer with oligomers increases the amount of α-Syn oligomers. […] This is consistent with previous work showing that dopamine-modified α-Syn oligomers are not seeding competent.
Purified proteins were subjected to 15% SDS/PAGE and then transferred to polyvinylidene fluoride membranes (Bio-Rad), which were then blocked with 5% (w/v) skim milk in Tris-buffered saline with 0.1% Tween 20 detergent (TBST) (500 mM Tris, pH 8.5; 150 mM NaCl; […]) for 1 h and incubated with α-Syn primary antibody [sc-52979 (Santa Cruz Biotechnology) at a 1:750 dilution factor] for 12 h at 4 °C. The membrane was rinsed with TBST, incubated with anti-mouse IgG peroxidase secondary antibody (Sigma; 1:2500 dilution factor), washed again with TBST, and reacted with chemiluminescent substrate solution (ThermoFisher Scientific, SuperSignal West Pico Chemiluminescent Substrate) for 1 min. Resulting bands were detected using an LAS-4000 instrument (Fujifilm Life Science).
Fig. S4. […] Vesicle compositions are 73% PC, 20% cholesterol, and 7% PS. α-Syn monomers (500 nM) were incubated with the purified dopamine-induced oligomers (10 nM) at 37 ℃ for up to 10 hours and then the mixtures were applied to the Western blot analysis and probed with anti–α-Syn antibody. […] The image was edited by Adobe Illustrator CS6 (Adobe).

[4] = tested on: SNARE-mediated vesicle fusion (v-vesicles without PS); assay: In vitro lipid-mixing (FRET) assay with v-vesicles prepared with 0% PS; type: biochemical; details: v-vesicles 0% PS
Procedure: Figure 3 α-Syn monomer interactions with the lipid membrane enable cooperative inhibition of vesicle fusion. (A) The effect of the lipid-binding-deficient mutant of the α-Syn monomer (T44P/A89P) on fusion inhibition. v-Vesicles (V) were incubated with the T44P/A89P monomer for 10 min, and then α-Syn oligomers and t-vesicles (T) were added to the premixture. T and V (20 μM lipid concentration) were mixed together at 37 °C without α-Syn (T-V, gray line). […] A control measurement using soluble Syb2 confirmed that lipid mixing was driven by SNARE complex formation (beige line). Bar graphs were obtained from the values at 2000s from the FRET measurements (± SEM, N = 3). *P < 0.05, **P < 0.01, ***P < 0.001 by Student’s t test. (B) The effect of the negatively charged lipid (PS) on fusion inhibition. v-Vesicles (V) prepared with 0% PS were used in the measurement. v-Vesicles without PS were incubated with wild-type α-Syn monomer, and then t-vesicles (T) and oligomers were added to the premixture. […]
as §1

With α-synuclein [α-Syn monomer] the “clustering of v-vesicles” value (Syb2-carrying v-vesicles; α-Syn monomer alone, lipid:monomer 10:1 (5 μM:0.5 μM)) was “no clustering of v-vesicles was observed”, the “clustering of v-vesicles” value (Syb2-carrying v-vesicles; α-Syn monomer and oligomers, lipid:oligomers:monomers 200:1:20) was “they formed larger clusters; also recorded: The vesicle cluster was significantly larger than that observed in (C)” and the “number of vesicles per cluster” value (Syb2-carrying v-vesicles; α-Syn monomers together with oligomers, lipid:oligomers:monomers 200:1:20) was 123.5 ± 11.5 vesicles. The “fusion efficiency (relative lipid mixing)” value ([1]; 10 nM α-Syn oligomers + 850 nM α-Syn monomer, monomer pre-incubated with V 10 min, 37 °C, at 1800 s, N = 3) was 25%, the “effect on fusion inhibition by oligomers” value ([1]; wild-type α-Syn monomer together with 10 nM α-Syn oligomers, 37 °C) was “more severe inhibition of vesicle fusion between T and V was observed as the concentration of α-Syn monomer increased; also recorded: the FRET signal was lower than that of the α-Syn oligomer-treated vesicle fusion” and the “effect on lipid mixing” value ([1]; α-Syn monomer alone, 200–850 nM, 10 min incubation with v-vesicles, N = 3) was “negligible effect on lipid mixing; also recorded: no effect on SNARE-mediated lipid mixing; also recorded: negligible effect on SNARE-mediated vesicle fusion”. For the same substance, the “effect on SNARE-dependent vesicle docking” value [2] was “beneficial for SNARE-dependent vesicle docking”, the “change in amounts of oligomers and monomers” value [3] was “No change in the intensities of the oligomers, multimers, and monomer was observed; also recorded: no change in the amounts of oligomers and monomers was observed” and the “recovery of SNARE-mediated lipid mixing” value ([4]; 2 μM wild-type α-Syn monomer with α-Syn oligomers, 37 °C, at 2000 s, N = 3) was about 100%. For the same substance, the “effect on fusion inhibition by oligomers” value ([4]; wild-type α-Syn monomer (200 nM to 2 μM) with α-Syn oligomers) was “the FRET signal increased; also recorded: attenuated”.
